Measurements taken from US20020006406A1, “METHOD FOR THE TREATMENT OF STAPHYLOCOCCAL DISEASE” (priority 1997, published 2002).
Marks after values point to notes of the source that are not given here.

Assays:
S. aureus [1] = assay: MIC by standard broth microdilution; type: cell-based
Text: (§1) Approved Standard M7-A3. Methods for dilution antimicrobial susceptibility tests for bacteria that grow aerobically—Third edition. National Committee for Clinical Laboratory Standards, Villanova, Pa.; National Committee for Clinical Laboratory Standards, 1992. Tentative Guideline M26-T. Methods for determining bactericidal activity of antimicrobial agents. National Committee for Clinical Laboratory Standards, Villanova, Pa.].

S. aureus [2] = assay: MBC by standard broth microdilution (kills 99.9% of inoculum in 24 h); type: cell-based
Text: as §1

MRSA 27619 = assay: Experimental aortic valve endocarditis in rabbits, MRSA 27619; type: in vivo, S. aureus; conditions: for Mean log10CFU/gram of vegetation / Number of sterile vegetations/total animals treated: three days
Procedure: (§2) Aortic valve endocarditis was established in New Zealand white rabbits weighing approximately 3 kg. Rabbits were anesthetized and the right carotid artery surgically exposed and cannulated with a polyethylene catheter which was advanced into the left ventricle of the heart. After at least 24 h, the rabbits were infected intravenously with 10^6-10^7 cells of a methicillin-resistant S. aureus strain (MRSA 27619). Twenty-four hours later, the animals were randomly assigned to different treatment groups; untreated control (9 rabbits); positive control, vancomycin 30 mg/kg twice daily (15); lysostaphin 5 mg/kg three times daily (11); lysostaphin 5 mg/kg once daily (10); lysostaphin 5 mg/kg once daily+vancomycin 30 mg/kg twice daily (11).
(§3) All treatments were intravenous and were carried out for three days. The state of health of the rabbits was assessed at intervals. The rabbits were sacrificed 18 h after the last treatment. Aortic vegetations were removed and weighed and processed to determine the number of viable bacteria, expressed as log,10CFU/gram. The limit of detection is 10^2 CFU/gram (log10CFU/gram=2.0). The mean titers of bacteria per gram were compared by one-way analysis of variance. The Student-Newman-Keuls test was used to adjust for multiple comparisons.
Comparison of the rates of sterilization were made using Fisher's exact test. Statistical significance was defined as a P value of ≦0.05.
Kidney abscesses were also assessed for the presence of staphylococci.

[3] = tested on: methicillin-resistant VISA strain of S. aureus; assay: Experimental endocarditis in rabbits, methicillin-resistant VISA strain; type: in vivo
Procedure: as §2, with “(11). Any rabbits whose infection was not confirmed by pre-treatment blood culture were eliminated.” for “(11).”
as §3
Strains that are both methicillin-resistant and resistant to vancomycin are a newly emerging problem. A variant strain of this type was selected after cycles of growth in glycopeptide-containing medium. The vancomycin MIC for the resulting strain was 8 μg/ml, as reported also for naturally occurring VISA strains isolated from patients in the U.S. and Japan. (Centers for Disease Control and Prevention, Morbidity and Mortality Weekly Report 1997; 46:813-815). Staphylococcal isolates are considered to be susceptible to vancomycin if the MIC is less than or equal to 4 μg/ml and to be completely resistant if the MIC is greater than or equal to 32 μg/ml (National Committee for Clinical Laboratory Standards, 1993. Approved Standard M2-A5. Performance standards for antimicrobial disk susceptibility tests—Fifth edition. National Committee for Clinical Laboratory Standards, Villanova, Pa.)

S. aureus strain AG461 = conditions: strain AG461 (methicillin-resistant clinical isolate)
Text: The different concentrations of lysostaphin and vancomycin used were one and eight times their respective MIC.

[4] = intraperitoneal infection, cited from earlier work
[5] = at least 50 mg/kg/treatment; cited from earlier work
[6] = single parenteral dose, followed by gentamicin three days later; the patient died; cited from earlier work
[7] = clinical isolates of S. aureus (summary of Table 1a)
[8] = strain 404 (clinical isolate, methicillin-resistant)
[9] = strain 450M (clinical isolate, methicillin-resistant)
[10] = strain 1573 (clinical isolate, methicillin-resistant)
[11] = strain 27222 (clinical isolate, methicillin-resistant)
[12] = strain 27286 (clinical isolate, methicillin-resistant)
[13] = strain 27287 (clinical isolate, methicillin-resistant)
[14] = strain 27295 (clinical isolate, methicillin-resistant)
[15] = strain 27619 (clinical isolate, methicillin-resistant)
[16] = strain 27619VR (laboratory-derived, intermediate susceptibility to vancomycin)
[17] = strain 27621 (clinical isolate, methicillin-resistant)
[18] = strain 27622 (clinical isolate, methicillin-resistant)
[19] = strain 27698 (clinical isolate, methicillin-resistant)
[20] = strain 29293 (clinical isolate, methicillin-resistant)
[21] = strain COL (clinical isolate, methicillin-resistant)
[22] = strain HP5827 (clinical isolate, methicillin-resistant, VISA)
[23] = strain HP5836 (clinical isolate, methicillin-resistant, VISA)

## lysostaphin: recombinant lysostaphin enzyme from fermentation of B. sphaericus; majority component lacks the two N-terminal amino acids of the published sequence
S. aureus [1]; [7]
  minimal inhibitory concentrations (MIC): ≤ 1.0 µg/mL
S. aureus [1]; strain 401 (clinical isolate)
  MIC Without BSA: 0.5 µg/mL
S. aureus [1]; strain 402 (clinical isolate)
  MIC: 0.5 µg/mL
S. aureus [1]; [8]
  MIC: 0.5 µg/mL
  MIC Without BSA: 0.5 µg/mL
S. aureus [1]; strain 412
  MIC: 0.25 µg/mL
S. aureus [1]; strain 414
  MIC: 0.25 µg/mL
  MIC Without BSA: 0.25 µg/mL
S. aureus [1]; [9]
  MIC: 0.25 µg/mL
S. aureus [1]; [10]
  MIC: 0.5 µg/mL
S. aureus [1]; [11]
  MIC: 0.25 µg/mL
S. aureus [1]; [12]
  MIC: 0.25 µg/mL
S. aureus [1]; [13]
  MIC: 0.25 µg/mL
  MIC Without BSA: 0.25 µg/mL
S. aureus [1]; [14]
  MIC: 0.13 µg/mL
  MIC Without BSA: 0.13 µg/mL
S. aureus [1]; [15]
  MIC: 0.25 µg/mL
  MIC Without BSA: 0.25 µg/mL
S. aureus [1]; [16]
  MIC: 0.5 µg/mL
S. aureus [1]; [17]
  MIC: 0.06 µg/mL
S. aureus [1]; [18]
  MIC: 0.06 µg/mL
S. aureus [1]; [19]
  MIC: 0.25 µg/mL
S. aureus [1]; [20]
  MIC: 0.06 µg/mL
S. aureus [1]; [21]
  MIC: 0.13 µg/mL
S. aureus [1]; [22]
  MIC: 0.5 µg/mL
S. aureus [1]; [23]
  MIC: 0.5 µg/mL
S. aureus [2]; [7]
  minimal bactericidal concentrations (MBC): ≤ 1.0 µg/mL
S. aureus [2]; strain 402 (clinical isolate)
  MBC: 0.5 µg/mL
S. aureus [2]; [8]
  MBC: 0.5 µg/mL
S. aureus [2]; strain 412
  MBC: 0.25 µg/mL
S. aureus [2]; strain 414
  MBC: 0.25 µg/mL
S. aureus [2]; [9]
  MBC: 0.5 µg/mL
S. aureus [2]; [10]
  MBC: 1 µg/mL
S. aureus [2]; [11]
  MBC: 0.25 µg/mL
S. aureus [2]; [12]
  MBC: 0.5 µg/mL
S. aureus [2]; [13]
  MBC: 0.25 µg/mL
S. aureus [2]; [14]
  MBC: 0.25 µg/mL
S. aureus [2]; [15]
  MBC: 0.5 µg/mL
S. aureus [2]; [16]
  MBC: 0.5 µg/mL
S. aureus [2]; [17]
  MBC: 0.25 µg/mL
S. aureus [2]; [18]
  MBC: 0.25 µg/mL
S. aureus [2]; [19]
  MBC: 0.5 µg/mL
S. aureus [2]; [20]
  MBC: 0.25 µg/mL
S. aureus [2]; [21]
  MBC: 0.25 µg/mL
S. aureus [2]; [22]
  MBC: 0.5 µg/mL
S. aureus [2]; [23]
  MBC: 1 µg/mL
MRSA 27619; 5 mg/kg once daily iv
  Mean log10CFU/gram of vegetation: 7.08 log10CFU/gram
  Number of sterile vegetations/total animals treated: 2/10
MRSA 27619; 5 mg/kg three times daily iv
  Mean log10CFU/gram of vegetation: 2.26 log10CFU/gram
  Number of sterile vegetations/total animals treated: 10/11^c
MRSA 27619; thrice-daily regimen (5 mg/kg), controls just under 10^8 CFU/gram
  bacterial load in kidney abscesses: ~10^2 CFU/gram of tissue
MRSA 27619; thrice-daily regimen, early in the treatment cycle
  state of health of the rabbits: all in good health
[3]; 5 mg/kg three times daily
  CFU/g vegetation (expressed as log10 of the mean): 6.29 log10 CFU/g
  sterile/total vegetations: 2/10
[3]; 15 mg/kg twice daily
  CFU/g vegetation (expressed as log10 of the mean): 4.0** log10 CFU/g
  sterile/total vegetations: 0/5
S. aureus strain AG461
  MIC (lower time-kill concentration stated to be one times MIC): 0.004 µg/mL
[4]; single or multiple subcutaneous administrations, total approximately 1 mg/kg
  survival of treated mice: 50%
[4]; total dosage of 6 mg/kg
  mice protected: 100%
[5]
  effectiveness (health of the dogs, reduction of bacteria in heart valves and kidneys): only moderately effective
[6]
  outcome in one very ill human patient: reduction in bacteremia
